From publication PMC11859928, “Design, Synthesis, and Antiproliferative Activity of Novel Indole/1,2,4-Triazole Hybrids as Tubulin Polymerization Inhibitors” (Pharmaceuticals, 2025)
Read-outs that look alike come from different tables or passages of the source.

Legend:
[1] = tested on: CCRF-CEM; assay: NCI one-dose assay; type: cell-based; conditions: Homo sapiens, Leukemia, read-out: Cell growth inhibition %
[2] = tested on: COLO 205; assay: NCI one-dose assay; type: cell-based; conditions: Homo sapiens, COLO 205, Colon cancer, read-out: Cell growth inhibition %
[3] = tested on: DU-145; assay: NCI one-dose assay; type: cell-based; conditions: Homo sapiens, DU-145, Prostate cancer, read-out: Cell growth inhibition %
[4] = tested on: EKVX; assay: NCI one-dose assay; type: cell-based; conditions: Homo sapiens, Non-small cell lung cancer, read-out: Cell growth inhibition %
[5] = tested on: HCT-116; assay: NCI one-dose assay; type: cell-based; conditions: Homo sapiens, HCT-116, Colon cancer, read-out: Cell growth inhibition %
[6] = tested on: HCT-15; assay: NCI one-dose assay; type: cell-based; conditions: Homo sapiens, HCT-15, Colon cancer, read-out: Cell growth inhibition %
[7] = tested on: HOP-62; assay: NCI one-dose assay; type: cell-based; conditions: Homo sapiens, HOP-62, Non-small cell lung cancer, read-out: Cell growth inhibition %
[8] = tested on: LOX IMVI; assay: NCI one-dose assay; type: cell-based; conditions: Homo sapiens, Melanoma, read-out: Cell growth inhibition %
[9] = tested on: MOLT-4; assay: NCI one-dose assay; type: cell-based; conditions: Homo sapiens, MOLT-4, Leukemia, read-out: Cell growth inhibition %
[10] = tested on: NCI-H23; assay: NCI one-dose assay; type: cell-based; conditions: Homo sapiens, NCI-H23, Non-small cell lung cancer, read-out: Cell growth inhibition %
[11] = tested on: NCI/ADR-RES; assay: NCI one-dose assay; type: cell-based; conditions: Homo sapiens, Ovarian cancer, read-out: Cell growth inhibition %
[12] = tested on: OVCAR-3; assay: NCI one-dose assay; type: cell-based; conditions: Homo sapiens, OVCAR-3, Ovarian cancer, read-out: Cell growth inhibition %
[13] = tested on: OVCAR-5; assay: NCI one-dose assay; type: cell-based; conditions: Homo sapiens, OVCAR-5, Ovarian cancer, read-out: Cell growth inhibition %
[14] = tested on: PC-3; assay: NCI one-dose assay; type: cell-based; conditions: Homo sapiens, PC-3, Prostate cancer, read-out: Cell growth inhibition %
[15] = tested on: SF-268; assay: NCI one-dose assay; type: cell-based; conditions: Homo sapiens, SF-268, CNS cancer, read-out: Cell growth inhibition %
[16] = tested on: SK-MEL-2; assay: NCI one-dose assay; type: cell-based; conditions: Homo sapiens, SK-MEL-2, Melanoma, read-out: Cell growth inhibition %
[17] = tested on: SN12C; assay: NCI one-dose assay; type: cell-based; conditions: Homo sapiens, Renal cancer, read-out: Cell growth inhibition %
[18] = tested on: SNB-19; assay: NCI one-dose assay; type: cell-based; conditions: Homo sapiens, SNB-19, CNS cancer, read-out: Cell growth inhibition %
[19] = tested on: SW-620; assay: NCI one-dose assay; type: cell-based; conditions: Homo sapiens, SW-620, Colon cancer, read-out: Cell growth inhibition %
[20] = tested on: 786-0; assay: NCI one-dose assay; type: cell-based, human; conditions: Homo sapiens, 786-0, 786-0, Renal cancer, read-out: Cell growth inhibition %
[21] = tested on: A498; assay: NCI one-dose assay; type: cell-based, human; conditions: Homo sapiens, A498, A498, Renal cancer, read-out: Cell growth inhibition %
[22] = tested on: HOP-92; assay: NCI one-dose assay; type: cell-based, human; conditions: Homo sapiens, HOP-92, HOP-92, Non-small cell lung cancer, read-out: Cell growth inhibition %
[23] = tested on: UO-31; assay: NCI one-dose assay; type: cell-based, human; conditions: Homo sapiens, UO-31, UO-31, Renal cancer, read-out: Cell growth inhibition %
[24] = tested on: SR; assay: NCI five-dose assay; type: cell-based, human; conditions: for CC50: read-out: LC50 (the source's name)
[25] = tested on: SK-OV-3; assay: NCI five-dose assay; type: cell-based, human; conditions: for GI50 / CC50: Homo sapiens; for GI50: read-out: GI50 Conc. per Cell Lines; for CC50: read-out: LC50 (the source's name)
[26] = tested on: Ovarian cancer subpanel; assay: NCI five-dose assay, subpanel mean; type: cell-based, human; conditions: for GI50: Homo sapiens, read-out: GI50 Subpanel MID b; for GI50 Selectivity Ratio (MID a/MID b): Ovarian cancer subpanel
[27] = tested on: NCI 60 cell lines; assay: NCI one-dose assay, full panel; type: cell-based, human; conditions: Homo sapiens, 60 cell, read-out: cell growth inhibition percentage, range
Procedure: The National Cancer Institute (NCI), Bethesda, USA, selected the final compounds 6a–j and 7a–j for in vitro anticancer screening. An initial in vitro single-dose anticancer experiment was performed with the entire NCI 60 cell lines derived from nine tumor subpanel cancer cell lines. The results for each compound were illustrated as a mean graph showing the percentage growth of treated cells compared to untreated control cells (see Supplementary Materials).
The NCI anticancer screening process has been thoroughly detailed. The Drug Evaluation Branch of the National Cancer Institute in Bethesda, […], USA, established the procedure and conducted the anticancer assay on 60 human tumor cell lines from nine neoplastic cancers.

[28] = molecular target: T1, tubulin (Sus scrofa, UniProt P02550+P02554); assay: Tubulin polymerization inhibitory assay; type: biochemical
T1 construct: purchased Cytoskeleton Inc., Denver, CO, USA
T1 sequence (P02554 whole entry): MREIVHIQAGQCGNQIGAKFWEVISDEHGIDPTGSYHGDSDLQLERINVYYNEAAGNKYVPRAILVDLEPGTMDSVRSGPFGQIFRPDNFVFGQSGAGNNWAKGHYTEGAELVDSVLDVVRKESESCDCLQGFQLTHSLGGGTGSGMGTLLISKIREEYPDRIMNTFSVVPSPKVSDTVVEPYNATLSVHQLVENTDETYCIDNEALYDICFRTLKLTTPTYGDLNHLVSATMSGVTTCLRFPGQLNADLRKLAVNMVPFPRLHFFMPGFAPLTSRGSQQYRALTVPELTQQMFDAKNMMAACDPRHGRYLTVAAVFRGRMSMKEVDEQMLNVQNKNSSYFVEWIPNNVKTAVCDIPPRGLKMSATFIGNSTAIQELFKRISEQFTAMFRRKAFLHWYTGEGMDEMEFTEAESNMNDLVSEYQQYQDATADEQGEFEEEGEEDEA
T1 sequence (P02550 whole entry): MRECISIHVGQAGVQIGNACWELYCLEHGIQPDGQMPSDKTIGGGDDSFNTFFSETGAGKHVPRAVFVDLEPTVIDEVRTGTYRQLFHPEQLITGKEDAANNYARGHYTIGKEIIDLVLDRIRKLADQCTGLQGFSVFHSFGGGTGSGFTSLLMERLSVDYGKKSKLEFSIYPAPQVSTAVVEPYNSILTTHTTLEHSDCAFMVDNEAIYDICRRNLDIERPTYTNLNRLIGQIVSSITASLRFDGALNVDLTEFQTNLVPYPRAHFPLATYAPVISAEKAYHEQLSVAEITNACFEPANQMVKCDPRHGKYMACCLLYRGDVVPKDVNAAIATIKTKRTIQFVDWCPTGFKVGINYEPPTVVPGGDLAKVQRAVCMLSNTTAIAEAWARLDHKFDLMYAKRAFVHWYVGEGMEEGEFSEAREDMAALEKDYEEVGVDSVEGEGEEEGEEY
Source text: The substances’ effects on tubulin polymerization were examined using the Tubulin Polymerization Assay Kit (Cytoskeleton Inc., Denver, CO, USA) according to the supplier’s instructions, with details described in Appendix A..
The activity of compounds on tubulin polymerization was investigated using the Tubulin Polymerization Assay Kit (Cytoskeleton Inc., Denver, CO, USA), which works via fluorescent reporter enhancement. […] Docetaxel and vincristine (Apoteket AB, Stockholm, Sweden) served as positive stabilizing and destabilizing controls. Both were used at a 3 µM concentration in PBS.

[29] = conc 0.01 (unit not given; IC50 from this curve in µg/ml)
[30] = conc 0.1 (unit not given; IC50 from this curve in µg/ml)
[31] = conc 1 (unit not given; IC50 from this curve in µg/ml)
[32] = conc 10 (unit not given; IC50 from this curve in µg/ml)
[33] = conc 100 (unit not given; IC50 from this curve in µg/ml)
[34] = read-out: Tub. IC50±SD (converted)
[35] = read-out: Tubulin Inhibitory Effect, IC50

## O/N=C(\CSc1nnc(-c2c[nH]c3ccccc23)n1-c1ccccc1)c1ccc(Cl)cc1 [Compound 7j, (Z)-2-((5-(1H-Indol-3-yl)-4-phenyl-4H-1,2,4-triazol-3-yl)thio)-1-(4-chlorophenyl) Ethanone Oxime]
[1]
  inhibition at 10 µM: 105%
[2]
  inhibition at 10 µM: 89.8%
[3]
  inhibition at 10 µM: 131%
[4]
  inhibition at 10 µM: 98%
[5]
  inhibition at 10 µM: 99.3%
[6]
  inhibition at 10 µM: 148%
[7]
  inhibition at 10 µM: 164%
[8]
  inhibition at 10 µM: 189%
[9]
  inhibition at 10 µM: 107%
[10]
  inhibition at 10 µM: 52.7%
[11]
  inhibition at 10 µM: 170%
[12]
  inhibition at 10 µM: 65.8%
[13]
  inhibition at 10 µM: 143%
[14]
  inhibition at 10 µM: 138%
[15]
  inhibition at 10 µM: 149%
[16]
  inhibition at 10 µM: 79.9%
[17]
  inhibition at 10 µM: 116%
[18]
  inhibition at 10 µM: 82.6%
[19]
  inhibition at 10 µM: 137%
[20]
  inhibition at 10 µM: 65.9%
[21]
  inhibition at 10 µM: 16.3%
[22]
  inhibition at 10 µM: 108%
[23]
  inhibition at 10 µM: 65.6%
[24]; Homo sapiens, five dose levels, read-out: GI50 Conc. per Cell Lines
  GI50: 4.74 µM
[24]; Homo sapiens, five dose levels
  CC50: > 100 µM
[24]; five dose levels
  TGI Conc. per Cell Lines: >100 µM
[25]; SK-OV-3, five dose levels
  GI50: 3.38 µM
  CC50: 71.4 µM
[26]; Ovarian cancer, average sensitivity of all cell lines of the subpanel
  GI50: 3.61 µM
[26]
  GI50 Selectivity Ratio (MID a/MID b): 1.01
[27]; six cell lines with moderate activity
  inhibition at 10 µM: 52 to 66%
[27]; twenty-eight cell lines with total cell death
  inhibition at 10 µM: 102 to 200%
[27]; twenty-four cell lines
  inhibition at 10 µM: 69.5 to 99.3%
[28]; [29]
  %inhibition: 5.23%
[28]; [30]
  %inhibition: 15.6%
[28]; [31]
  %inhibition: 34.8%
[28]; [32]
  %inhibition: 58.9%
[28]; [33]
  %inhibition: 87.6%
[28]; [34]
  IC50: 6.26 µM
[28]; [35]
  IC50: 6.26 ± 0.15 µM

## Cc1ccc(/C(CSc2nnc(-c3c[nH]c4ccccc34)n2-c2ccccc2)=N/O)cc1 [Compound 7h, (Z)-2-((5-(1H-Indol-3-yl)-4-phenyl-4H-1,2,4-triazol-3-yl)thio)-1-(p-tolyl)ethanone Oxime]
[1]
  inhibition at 10 µM: 135%
[2]
  inhibition at 10 µM: 87.6%
[3]
  inhibition at 10 µM: 160%
[4]
  inhibition at 10 µM: 71.8%
[5]
  inhibition at 10 µM: 97.4%
[6]
  inhibition at 10 µM: 162%
[7]
  inhibition at 10 µM: 157%
[8]
  inhibition at 10 µM: 188%
[9]
  inhibition at 10 µM: 128%
[10]
  inhibition at 10 µM: 46.7%
[11]
  inhibition at 10 µM: 168%
[12]
  inhibition at 10 µM: 85.3%
[13]
  inhibition at 10 µM: 149%
[14]
  inhibition at 10 µM: 147%
[15]
  inhibition at 10 µM: 160%
[16]
  inhibition at 10 µM: 37.3%
[17]
  inhibition at 10 µM: 137%
[18]
  inhibition at 10 µM: 119%
[19]
  inhibition at 10 µM: 180%
[20]
  inhibition at 10 µM: 97.8%
[21]
  inhibition at 10 µM: 8.13%
[22]
  inhibition at 10 µM: 106%
[23]
  inhibition at 10 µM: 93.5%
[24]; Homo sapiens, Leukemia, 48 h
  CC50: > 100 µM
[24]; Leukemia
  TGI Conc. per Cell Lines: ˃100 µM
[25]; SK-OV-3, Ovarian cancer, 48 h
  CC50: 7.89 µM
[25]; SK-OV-3, Ovarian cancer
  GI50: 1.68 µM
  TGI Conc. per Cell Lines: 3.64 µM
[26]; average sensitivity of all cell lines of the Ovarian cancer subpanel
  GI50: 2.24 µM
[26]
  GI50 Selectivity Ratio (MID a/MID b): 1.34
[27]; sixteen cell lines
  inhibition at 10 µM: 72 to 98%
[27]; thirty-six cell lines with complete cell death
  inhibition at 10 µM: 106 to 200%
[28]; [29]
  %inhibition: 2.01%
[28]; [30]
  %inhibition: 8.94%
[28]; [31]
  %inhibition: 26.1%
[28]; [32]
  %inhibition: 49.9%
[28]; [33]
  %inhibition: 76.7%
[28]; [34]
  IC50: 18.4 µM
[28]; [35]
  IC50: 18.4 ± 0.7 µM
